Measurements reported in ChEMBL document CHEMBL1909046, “DrugMatrix in vitro pharmacology data”.

Tests used:
[1] = molecular target: Beta-1 adrenergic receptor (Homo sapiens, UniProt P08588); assay: DRUGMATRIX: Adrenergic beta1 radioligand binding (ligand: [125I] Cyanopindolol); assay type: cell membranes, CHO-K1, Membrane; settings: Not Active = under 50% inhibition at 10 µM
[2] = DRUGMATRIX: beta-Lactamase enzyme inhibition (substrate: Nitrocefin); set-up: species or system Bacillus cereus; settings: Not Active = under 50% inhibition at 10 µM
[3] = DRUGMATRIX: Calcium Channel Type L, Dihydropyridine radioligand binding (ligand: [3H] Nitrendipine); assay type: cell membranes, Rattus norvegicus, Wistar, Cerebral cortex, Membrane; settings: Not Active = under 50% inhibition at 10 µM
[4] = molecular target: T1, Vasoactive intestinal polypeptide receptor 1 (Homo sapiens, UniProt P32241); assay type: cell membranes, Membrane; settings: ht-29; note: in other assays of this panel Not Active means under 50% inhibition at 10 µM
T1 sequence (P32241 whole entry): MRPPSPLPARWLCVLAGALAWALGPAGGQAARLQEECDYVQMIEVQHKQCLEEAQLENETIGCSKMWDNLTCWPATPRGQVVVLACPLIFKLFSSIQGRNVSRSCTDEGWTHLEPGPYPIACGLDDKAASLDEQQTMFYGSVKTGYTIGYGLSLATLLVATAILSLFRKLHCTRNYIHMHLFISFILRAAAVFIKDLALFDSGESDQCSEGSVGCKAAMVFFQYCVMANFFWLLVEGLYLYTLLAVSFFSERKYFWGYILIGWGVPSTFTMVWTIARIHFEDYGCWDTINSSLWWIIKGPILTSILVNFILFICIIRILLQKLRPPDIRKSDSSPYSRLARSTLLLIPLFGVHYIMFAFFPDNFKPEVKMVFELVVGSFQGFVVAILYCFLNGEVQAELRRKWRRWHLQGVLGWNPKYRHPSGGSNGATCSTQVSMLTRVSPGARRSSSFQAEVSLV

[5] = molecular target: T2, C-C chemokine receptor type 4 (Homo sapiens, UniProt P51679); assay type: cell membranes, Membrane; settings: chem-1; note: in other assays of this panel Not Active means under 50% inhibition at 10 µM
T2 sequence (P51679 whole entry): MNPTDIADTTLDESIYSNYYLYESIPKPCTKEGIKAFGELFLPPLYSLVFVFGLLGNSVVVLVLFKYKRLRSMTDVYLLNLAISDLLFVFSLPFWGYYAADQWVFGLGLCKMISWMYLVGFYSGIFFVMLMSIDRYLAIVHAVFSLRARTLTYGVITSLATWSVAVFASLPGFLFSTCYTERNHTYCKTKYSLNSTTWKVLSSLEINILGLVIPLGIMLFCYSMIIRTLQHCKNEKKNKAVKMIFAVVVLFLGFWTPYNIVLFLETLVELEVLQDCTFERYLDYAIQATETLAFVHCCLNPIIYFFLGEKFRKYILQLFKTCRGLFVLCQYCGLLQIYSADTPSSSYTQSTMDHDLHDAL

[6] = molecular target: Prostaglandin G/H synthase 1 (Homo sapiens, UniProt P23219); assay: biochemical; assay type: tissue-based, Platelet; settings: platelet;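 note: inhibition of COX-1 enzyme activity, with arachidonic acid supplied as substrate; in other assays of this panel Not Active means under 50% inhibition at 10 µM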
Chain of Prostaglandin G/H synthase 1 (P23219 whole entry): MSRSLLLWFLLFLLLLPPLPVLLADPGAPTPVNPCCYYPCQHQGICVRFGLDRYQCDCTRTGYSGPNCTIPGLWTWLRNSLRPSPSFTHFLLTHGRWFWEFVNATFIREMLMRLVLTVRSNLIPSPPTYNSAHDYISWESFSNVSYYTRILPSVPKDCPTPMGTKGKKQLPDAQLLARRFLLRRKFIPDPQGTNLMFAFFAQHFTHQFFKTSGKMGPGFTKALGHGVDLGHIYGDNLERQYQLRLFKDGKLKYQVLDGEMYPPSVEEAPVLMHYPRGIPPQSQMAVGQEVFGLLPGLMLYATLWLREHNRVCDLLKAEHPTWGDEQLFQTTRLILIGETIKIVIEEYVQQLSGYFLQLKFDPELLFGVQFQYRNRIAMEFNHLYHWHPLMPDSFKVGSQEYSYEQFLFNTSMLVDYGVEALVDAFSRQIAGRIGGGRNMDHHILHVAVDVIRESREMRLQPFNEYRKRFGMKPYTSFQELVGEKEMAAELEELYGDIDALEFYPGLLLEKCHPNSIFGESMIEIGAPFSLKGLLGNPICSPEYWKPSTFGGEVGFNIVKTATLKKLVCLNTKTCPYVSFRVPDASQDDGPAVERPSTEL

[7] = DRUGMATRIX: Interleukin IL-1 radioligand binding (ligand: [125I] interleukin 1beta); assay type: cell membranes, Membrane; settings: nih3t3; Not Active = under 50% inhibition at 10 µM
[8] = DRUGMATRIX: Leukotriene, BLT (LTB4) radioligand binding (ligand: [3H]LTB4); assay type: cell membranes, Membrane; settings: u-937; Not Active = under 50% inhibition at 10 µM
Melanocortin receptor 3 = Melanocortin receptor 3 (Homo sapiens, UniProt P41968); assay type: cell membranes, Membrane; settings: hek293; note: in other assays of this panel Not Active means under 50% inhibition at 10 µM
Chain of Melanocortin receptor 3 (P41968 whole entry): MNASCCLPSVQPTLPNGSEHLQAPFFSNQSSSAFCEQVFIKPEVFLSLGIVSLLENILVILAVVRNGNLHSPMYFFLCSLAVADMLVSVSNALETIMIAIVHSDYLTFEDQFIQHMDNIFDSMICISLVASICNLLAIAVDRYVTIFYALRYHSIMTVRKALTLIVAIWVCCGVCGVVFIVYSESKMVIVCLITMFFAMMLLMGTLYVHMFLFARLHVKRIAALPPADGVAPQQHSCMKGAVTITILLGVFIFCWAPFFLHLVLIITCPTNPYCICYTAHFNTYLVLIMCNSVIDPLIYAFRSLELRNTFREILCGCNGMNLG

Melanocortin receptor 5 = Melanocortin receptor 5 (Homo sapiens, UniProt P33032); assay type: cell membranes, HEK293, Membrane; settings: hek293; note: in other assays of this panel Not Active means under 50% inhibition at 10 µM
Chain of Melanocortin receptor 5 (P33032 whole entry): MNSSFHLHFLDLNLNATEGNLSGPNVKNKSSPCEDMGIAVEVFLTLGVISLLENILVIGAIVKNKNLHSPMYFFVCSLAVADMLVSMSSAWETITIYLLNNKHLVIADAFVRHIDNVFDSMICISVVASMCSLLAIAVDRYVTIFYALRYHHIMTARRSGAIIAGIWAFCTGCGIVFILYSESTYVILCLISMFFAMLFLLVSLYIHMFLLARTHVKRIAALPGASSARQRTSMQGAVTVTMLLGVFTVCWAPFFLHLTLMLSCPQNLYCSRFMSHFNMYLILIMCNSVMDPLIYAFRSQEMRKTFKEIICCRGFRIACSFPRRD

[9] = molecular target: T3, Neuropeptide Y receptor type 1 (Homo sapiens, UniProt P25929); assay type: cell membranes, Membrane; settings: sk-n-mc; note: in other assays of this panel Not Active means under 50% inhibition at 10 µM
T3 sequence (P25929 whole entry): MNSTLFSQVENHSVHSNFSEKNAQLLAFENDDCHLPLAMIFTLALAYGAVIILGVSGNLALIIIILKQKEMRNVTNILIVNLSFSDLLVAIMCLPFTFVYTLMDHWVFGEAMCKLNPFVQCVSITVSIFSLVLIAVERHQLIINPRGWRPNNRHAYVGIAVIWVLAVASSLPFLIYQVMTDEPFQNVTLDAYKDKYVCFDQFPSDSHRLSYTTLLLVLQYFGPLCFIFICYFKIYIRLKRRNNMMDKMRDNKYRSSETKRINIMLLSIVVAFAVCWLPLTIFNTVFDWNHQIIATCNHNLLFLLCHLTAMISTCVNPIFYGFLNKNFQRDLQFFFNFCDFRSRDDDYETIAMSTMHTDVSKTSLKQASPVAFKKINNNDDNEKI

[10] = molecular target: Delta-type opioid receptor (Homo sapiens, UniProt P41143); assay type: cell membranes, HEK293, Membrane; note: in other assays of this panel Not Active means under 50% inhibition at 10 µM
Chain of Delta-type opioid receptor (P41143 whole entry): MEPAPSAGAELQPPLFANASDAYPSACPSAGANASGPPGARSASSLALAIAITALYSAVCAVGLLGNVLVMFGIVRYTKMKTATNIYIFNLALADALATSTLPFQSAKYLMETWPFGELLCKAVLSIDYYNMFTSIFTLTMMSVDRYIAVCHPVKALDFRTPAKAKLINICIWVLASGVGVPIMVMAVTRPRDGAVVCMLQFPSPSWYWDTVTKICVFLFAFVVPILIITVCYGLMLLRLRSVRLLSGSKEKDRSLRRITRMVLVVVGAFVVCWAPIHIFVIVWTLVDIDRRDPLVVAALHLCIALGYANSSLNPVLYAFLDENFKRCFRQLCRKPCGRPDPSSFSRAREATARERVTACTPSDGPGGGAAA

Progesterone receptor = molecular target: T4, Progesterone receptor (Bos taurus, UniProt Q690N0); assay: DRUGMATRIX: Progesterone radioligand binding (ligand: [3H] R-5020); assay type: tissue-based, Uterus; settings: Not Active = under 50% inhibition at 10 µM
T4 sequence (Q690N0 whole entry): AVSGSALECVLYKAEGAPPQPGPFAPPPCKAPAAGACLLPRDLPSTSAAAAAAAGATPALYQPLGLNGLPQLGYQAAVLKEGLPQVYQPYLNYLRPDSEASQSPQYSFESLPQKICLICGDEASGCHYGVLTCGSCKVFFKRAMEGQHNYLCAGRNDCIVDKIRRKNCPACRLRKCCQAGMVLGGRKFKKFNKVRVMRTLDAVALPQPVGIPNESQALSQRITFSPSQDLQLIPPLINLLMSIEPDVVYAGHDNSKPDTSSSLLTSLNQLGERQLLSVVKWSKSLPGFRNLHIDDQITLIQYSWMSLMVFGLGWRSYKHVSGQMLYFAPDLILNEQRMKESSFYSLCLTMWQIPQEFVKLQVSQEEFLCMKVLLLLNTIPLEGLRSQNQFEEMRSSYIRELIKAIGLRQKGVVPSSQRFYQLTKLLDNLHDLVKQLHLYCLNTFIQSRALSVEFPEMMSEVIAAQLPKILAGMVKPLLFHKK

[11] = molecular target: T5, 5-hydroxytryptamine receptor 1A (Rattus norvegicus, UniProt P19327); assay type: cell membranes, CHO-K1, Membrane; note: in other assays of this panel Not Active means under 50% inhibition at 10 µM
T5 sequence (P19327 whole entry): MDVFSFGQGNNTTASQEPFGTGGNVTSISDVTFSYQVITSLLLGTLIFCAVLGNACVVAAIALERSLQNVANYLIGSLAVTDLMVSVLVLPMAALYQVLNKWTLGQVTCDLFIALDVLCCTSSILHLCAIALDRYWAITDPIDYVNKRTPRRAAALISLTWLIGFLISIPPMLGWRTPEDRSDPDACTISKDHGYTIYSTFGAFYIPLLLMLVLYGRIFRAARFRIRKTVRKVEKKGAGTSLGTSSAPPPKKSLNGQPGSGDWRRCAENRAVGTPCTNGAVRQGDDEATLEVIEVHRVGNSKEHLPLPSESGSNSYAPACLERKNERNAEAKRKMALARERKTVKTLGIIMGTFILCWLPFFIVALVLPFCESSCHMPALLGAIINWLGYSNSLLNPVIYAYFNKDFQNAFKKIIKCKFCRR

Chain of Beta-1 adrenergic receptor (P08588 whole entry): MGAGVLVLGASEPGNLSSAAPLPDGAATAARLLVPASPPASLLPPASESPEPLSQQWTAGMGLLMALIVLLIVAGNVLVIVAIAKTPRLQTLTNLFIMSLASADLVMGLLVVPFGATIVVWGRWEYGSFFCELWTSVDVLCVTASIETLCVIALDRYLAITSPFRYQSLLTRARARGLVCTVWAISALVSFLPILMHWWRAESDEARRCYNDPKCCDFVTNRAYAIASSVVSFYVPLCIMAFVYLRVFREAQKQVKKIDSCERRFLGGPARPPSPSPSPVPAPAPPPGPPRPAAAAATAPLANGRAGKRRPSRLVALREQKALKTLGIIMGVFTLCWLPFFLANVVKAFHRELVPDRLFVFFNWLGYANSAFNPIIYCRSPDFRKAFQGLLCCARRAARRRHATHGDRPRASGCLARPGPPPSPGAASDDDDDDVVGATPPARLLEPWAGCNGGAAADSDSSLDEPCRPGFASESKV

Row | SMILES | IC50 ([1]; cho-k1) | IC50 [2] | Ki [2] | IC50 [3] | Ki [3] | IC50 [4] | IC50 [5] | IC50 [6] | IC50 [7] | Ki [7] | IC50 [8] | Ki [8] | IC50 (Melanocortin receptor 3) | IC50 (Melanocortin receptor 5) | IC50 [9] | IC50 ([10]; hek293) | IC50 (Progesterone receptor) | IC50 ([11]; cho-k1) | IC50 ([11]; read-out: IC50) | Ki ([11]; read-out: Ki) | further results
1 | O=[N+]([O-])c1cc([As](=O)(O)O)ccc1O [ROXARSONE] | Not Active | Not Active | Not Active | Not Active | Not Active | Not Active | Not Active | Not Active | Not Active | Not Active | Not Active | Not Active | Not Active | Not Active | Not Active | Not Active | Not Active | Not Active | – | – | Ki ([1]; cho-k1): Not Active; Ki [4]: Not Active; Ki [5]: Not Active; Ki [6]: Not Active; Ki (Melanocortin receptor 3): Not Active; Ki (Melanocortin receptor 5): Not Active; Ki [9]: Not Active; Ki ([10]; hek293): Not Active; Ki (Progesterone receptor): Not Active; Ki ([11]; cho-k1): Not Active
2 | CC1CN(c2cc3c(cc2F)c(=O)c(C(=O)O)cn3-c2ccc(F)cc2F)CCN1 (stereo not drawn) [TEMAFLOXACIN] | Not Active | Not Active | Not Active | Not Active | Not Active | Not Active | Not Active | Not Active | Not Active | Not Active | Not Active | Not Active | Not Active | Not Active | Not Active | Not Active | Not Active | Not Active | – | – | –
3 | CC1(C)[C@H]2CC[C@]1(C)C(=O)C2 [(-)-CAMPHOR] | Not Active | Not Active | Not Active | Not Active | Not Active | Not Active | Not Active | Not Active | Not Active | Not Active | Not Active | Not Active | Not Active | Not Active | Not Active | Not Active | Not Active | Not Active | – | – | –
4 | NC(=O)c1ncn([C@@H]2O[C@H](CO)[C@@H](O)[C@H]2O)n1 [RIBAVIRIN] | Not Active | Not Active | Not Active | Not Active | Not Active | Not Active | Not Active | Not Active | Not Active | Not Active | Not Active | Not Active | Not Active | Not Active | Not Active | Not Active | Not Active | Not Active | – | – | –
5 | CN(C)CCCN1c2ccccc2CCc2ccc(Cl)cc21 [CLOMIPRAMINE] | Not Active | – | – | – | – | Not Active | Not Active | Not Active | – | – | – | – | Not Active | Not Active | Not Active | Not Active | Not Active | Not Active | – | – | –
6 | CN1CCN2c3ccccc3Cc3ccccc3C2C1 (stereo not drawn) [MIANSERIN] | Not Active | – | – | – | – | Not Active | Not Active | Not Active | – | – | – | – | Not Active | Not Active | Not Active | Not Active | Not Active | – | 0.872 µM | 0.498 µM | –
7 | CSc1ccc2c(c1)N(CCC1CCCCN1C)c1ccccc1S2 (stereo not drawn) [THIORIDAZINE] | Not Active | – | – | – | – | Not Active | Not Active | Not Active | – | – | – | – | Not Active | Not Active | Not Active | Not Active | Not Active | – | 0.06 µM | 0.034 µM | –
8 | Clc1ccccc1C(c1ccccc1)(c1ccccc1)n1ccnc1 [CLOTRIMAZOLE] | – | – | – | – | – | Not Active | Not Active | Not Active | – | – | – | – | Not Active | Not Active | Not Active | – | – | – | 17.7 µM | 10.1 µM | IC50 ([1]; read-out: IC50): 11.3 µM; Ki ([1]; read-out: Ki): 6.51 µM; IC50 ([10]; read-out: IC50): 4.98 µM; Ki ([10]; read-out: Ki): 1.76 µM; IC50 (Progesterone receptor; read-out: IC50): 8.77 µM; Ki (Progesterone receptor; read-out: Ki): 1.14 µM
9 | COc1cccc(C2(O)CCCCC2CN(C)C)c1 (stereo not drawn) [TRAMADOL] | Not Active | – | – | – | – | Not Active | Not Active | Not Active | – | – | – | – | Not Active | Not Active | Not Active | Not Active | Not Active | Not Active | – | – | –
